Reference: article PMC4469081 (Bioorganic & medicinal chemistry letters, 2015)
“Also recorded” adds a separate entry of the source. Blank lines part the entries; values can stand above or below the compound they belong to.

Experiments:
Format in all cases: cell-based
ldlA[mSR-BI] cells = test: Cytotoxicity in the assay cell line; conditions: 24 h incubation stated for 1a
[1] = target: T1, mouse SR-BI (ldlA[mSR-BI]) (Mus musculus, UniProt Q61009); test: DiI-HDL uptake assay
T1 sequence (Q61009 1-509): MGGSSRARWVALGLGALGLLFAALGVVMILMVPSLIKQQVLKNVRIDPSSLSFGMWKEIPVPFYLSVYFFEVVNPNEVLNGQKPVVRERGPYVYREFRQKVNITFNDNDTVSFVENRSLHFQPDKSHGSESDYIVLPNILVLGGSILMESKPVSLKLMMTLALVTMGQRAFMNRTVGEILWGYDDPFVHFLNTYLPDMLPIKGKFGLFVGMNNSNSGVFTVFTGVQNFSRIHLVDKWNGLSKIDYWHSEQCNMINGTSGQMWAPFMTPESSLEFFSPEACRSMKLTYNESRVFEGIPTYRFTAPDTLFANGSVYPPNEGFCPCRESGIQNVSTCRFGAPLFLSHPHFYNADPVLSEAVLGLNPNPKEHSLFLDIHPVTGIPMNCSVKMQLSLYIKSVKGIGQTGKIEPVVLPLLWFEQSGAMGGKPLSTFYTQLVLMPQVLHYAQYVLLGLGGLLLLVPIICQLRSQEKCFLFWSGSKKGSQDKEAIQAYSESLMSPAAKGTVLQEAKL

[2] = test system: receptor-mediated endocytosis of transferrin by ldlA[mSR-BI] cells; test: Endocytosis of Alexa-594-labeled transferrin; conditions: concentrations up to 35 μM

Structure (SMILES): COc1ccc(-c2nnn(CC(=O)N(C3CCCCC3)C(C)C(=O)NC3CCCC3)n2)cc1OC (centres unmarked) [Compound 1a]
Cytotoxicity (ldlA[mSR-BI] cells): no measurable cytotoxicity

Fold decrease in activity relative to 1a ([1]; carbon atom inserted between cyclohexyl group and backbone nitrogen): greater than 20 fold
Structure (SMILES): COc1ccc(-c2nnn(CC(=O)N(CC3CCCCC3)C(C)C(=O)NC3CCCC3)n2)cc1OC (centres unmarked) [Compound 4d]

Fold more potent than its enantiomer 5d ([1]; (R)-isomer vs (S)-isomer): 100 fold
Structure (SMILES): C[C@H](C(=O)NC1CCCC1)N(C(=O)Cn1nnc(-c2ccc3c(c2)OCO3)n1)C1CCCCC1 [Compound 5e]
Cytotoxicity (ldlA[mSR-BI] cells; listed as ML279): non-toxic; also recorded: not cytotoxic
Inhibition of transferrin endocytosis [2]: no inhibition
